Read-outs that look alike come from different tables or passages of the source. Starred links: 1 amine or outer side, 2 acyl side, 3 side chain; linkers in the order of their positions; H or OH if unused. Positions of bridges follow the written chain, without caps; N, C: chain ends. Non-standard residues stand in square brackets, D forms with d. Residues, ends and D or L forms follow the SMILES beside them. Groups on a side chain read outwards from the residue. *: point of attachment. X4 = CN(C)C(=O)Cn1cc(-c2ccc(C[C@H](N[*:1])C(=O)[*:2])cc2)cn1; Phe(3-OCH2COOH) = N[C@@H](Cc1cccc(OCC(=O)O)c1)C(=O)O; Phe(4-COOH) = N[C@@H](Cc1ccc(C(=O)O)cc1)C(=O)O; Piperazinyl(4-CH2COOH) = O=C(O)CN1CCN(*)CC1; Gly(Nα-CH2CH2CONH2) = NC(=O)CCNCC(=O)O; Gly(decyl) = CCCCCCCCCC[C@H](N)C(=O)O; X1 = CCCCCCC[C@H](N[*:1])C(=O)[*:2]; NMeCha = CN[C@@H](CC1CCCCC1)C(=O)O; NMeF = CN[C@@H](Cc1ccccc1)C(=O)O; Cha = N[C@@H](CC1CCCCC1)C(=O)O; Ahp(2) = CCCCC[C@H](N)C(=O)O; NMeA = CN[C@@H](C)C(=O)O; CO = O=C([*:1])[*:2]; NEtG = CCNCC(=O)O; Sar = CNCC(=O)O
What was measured:
[1] = target: T1, Myostatin (Homo sapiens, UniProt O14793); assay: HepG2 reporter gene assay, Evaluation Procedure (2): 2-concentrations assay, myostatin inhibition; format: cell-based
T1 construct: active myostatin (also called mature myostatin) is a homodimer consisting of two C-terminal growth factor domains; purchased R&D systems 788-G8/CF
T1 sequence (O14793 267-375): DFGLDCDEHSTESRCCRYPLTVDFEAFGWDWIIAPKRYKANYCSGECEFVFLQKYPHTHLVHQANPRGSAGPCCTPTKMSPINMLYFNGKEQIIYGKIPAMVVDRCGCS
Procedure, shortened: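 Myostatin inhibition was measured in a luciferase reporter assay using HepG2 cells transfected with a pGL3 vector containing 12 CAGA repeats upstream of luciferase. After 20 to 24 hours with 10 ng/mL myostatin, cells received One-Glo:PBS (1:1) at 100 µL/well, were shaken for 5 min, and 20 µL/well was moved to 384-well plates and read on an Envision 2104.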

[2] = target: T2, GDF-11 (Homo sapiens, UniProt O95390); assay: HepG2 reporter gene assay, Evaluation Procedure (2): 2-concentrations assay, GDF-11 inhibition; format: cell-based
T2 construct: purchased R&D systems 1958-GD-G8/CF
T2 sequence (O95390 299-407): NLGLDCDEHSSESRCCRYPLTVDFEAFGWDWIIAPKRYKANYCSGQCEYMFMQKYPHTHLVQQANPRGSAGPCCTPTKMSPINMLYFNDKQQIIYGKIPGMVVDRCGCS
Procedure, shortened: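 HepG2 cells carrying the transfected pGL3(CAGA)12-luc reporter, a pGL3 vector with luciferase placed downstream of 12 CAGA repeats, were stimulated with GDF-11 at a final 10 ng/mL together with test peptide. Blank wells received no GDF-11 and no peptide. Plates were incubated 20 to 24 hours at 37°C with 5% CO2. Luminescence from One-Glo substrate was read to calculate percent inhibition.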

[3] = peptide 30nM, Myostatin 10 ng/mL, HepG2, read-out: Myostatin Inhibition 30nM
[4] = peptide 100nM, Myostatin 10 ng/mL, HepG2, read-out: Myostatin Inhibition 100nM
[5] = HepG2, peptide 30nM, GDF-11 10 ng/mL, read-out: GDF11 Inhibition 30nM
[6] = HepG2, peptide 100nM, GDF-11 10 ng/mL, read-out: GDF11 Inhibition 100nM

| inhibition at 0.03 µM [1, 3] [%] | inhibition at 0.1 µM [1, 4] [%] | inhibition at 0.03 µM [2, 5] [%] | inhibition at 0.1 µM [2, 6] [%] | SMILES | inhibition at 0.03 µM ([1]; HepG2, read-out: Myostatin Inhibition 30nM) [%] | inhibition at 0.1 µM ([1]; HepG2, read-out: Myostatin Inhibition 100nM) [%] | inhibition at 0.03 µM ([2]; HepG2, read-out: GDF11 Inhibition 30nM, peptide 30nM, GDF-11 10 ng/mL) [%] | inhibition at 0.1 µM ([2]; HepG2, read-out: GDF11 Inhibition 100nM, peptide 100nM, GDF-11 10 ng/mL) [%] |
| --- | --- | --- | --- | --- | --- | --- | --- | --- |
| 69 | 91 | 0 | 0 | CCCCC[C@@H]1NC(=O)[C@H](Cc2ccccc2)N(C)C(=O)[C@H](CCCNC(=N)N)NC(=O)[C@H](Cc2ccc(C(=O)O)cc2)NC(=O)[C@H](Cc2cccc(OCC(=O)O)c2)NC(=O)CN(C)C(=O)[C@H]([C@@H](C)CC)NC(=O)[C@H](Cc2ccccc2)N(C)C(=O)[C@H](Cc2ccc(O)cc2)NC(=O)[C@H](Cc2c[nH]c3ccccc23)NC(=O)[C@H](C)NC(=O)[C@H](C)N(C)C(=O)CSC[C@H](C(=O)O)NC(=O)[C@H](Cc2ccccc2)N(C)C(=O)[C@H](C)N(C)C1=O [Myostatin_99_v240] ({CH2CO}-[NMeA]AWY[NMeF]I[Sar][Phe(3-OCH2COOH)][Phe(4-COOH)]R[NMeF][Ahp(2)][NMeA][NMeF][dC]-OH; thioether N-15) | – | – | – | – |
| 18 | 58 | 0 | 0 | CCCCC[C@@H]1NC(=O)[C@H](Cc2ccccc2)N(C)C(=O)[C@H](CCCNC(=N)N)NC(=O)[C@H](Cc2ccc(C(=O)O)cc2)NC(=O)[C@H](Cc2cccc(OCC(=O)O)c2)NC(=O)CN(C)C(=O)[C@H]([C@@H](C)CC)NC(=O)[C@H](Cc2ccccc2)N(C)C(=O)[C@H](Cc2ccc(O)cc2)NC(=O)[C@H](Cc2c[nH]c3ccccc23)NC(=O)[C@H](C)NC(=O)CN(CCC(N)=O)C(=O)CSC[C@H](C(=O)O)NC(=O)[C@H](Cc2ccccc2)N(C)C(=O)[C@H](C)N(C)C1=O [Myostatin_99_v242] ({CH2CO}-[Gly(Nα-CH2CH2CONH2)]AWY[NMeF]I[Sar][Phe(3-OCH2COOH)][Phe(4-COOH)]R[NMeF][Ahp(2)][NMeA][NMeF][dC]-OH; thioether N-15) | – | – | – | – |
| 68 | 94 | 0 | 6 | CCCCCCCCCC[C@@H]1NC(=O)[C@H](CC2CCCCC2)NC(=O)[C@H](CCCNC(=N)N)NC(=O)[C@H](Cc2ccc(C(=O)O)cc2)NC(=O)[C@H](CCCCNC(=O)N2CCN(CC(=O)O)CC2)NC(=O)[C@H]2CCCN2C(=O)[C@H]([C@@H](C)CC)NC(=O)[C@H](CC2CCCCC2)N(C)C(=O)[C@H](Cc2ccc(O)cc2)NC(=O)[C@H](Cc2c[nH]c3ccccc23)NC(=O)[C@@H](CCC(=O)O)NC(=O)[C@H](C)NC(=O)CSC[C@H](C(=O)N2CCN(CC(=O)O)CC2)NC(=O)[C@H](Cc2ccccc2)N(C)C(=O)[C@H](C)N(C)C1=O [Myostatin_99_v247] ({CH2CO}-A[dE]WY[NMeCha]I[dP]K([CO-Piperazinyl(4-CH2COOH)])[Phe(4-COOH)]R[Cha][Gly(decyl)][NMeA][NMeF][dC]-{Piperazinyl(4-CH2COOH)}; thioether N-15) | – | – | – | – |
| – | – | – | – | CCCCCCC[C@@H]1NC(=O)[C@H](CC2CCCCC2)NC(=O)[C@H](CCCNC(=N)N)NC(=O)[C@H](Cc2ccc(C(=O)O)cc2)NC(=O)[C@H](CCCCNC(=O)N2CCN(CC(=O)O)CC2)NC(=O)[C@H]2CCCN2C(=O)[C@H]([C@@H](C)CC)NC(=O)[C@H](CC2CCCCC2)N(C)C(=O)[C@H](Cc2ccc(O)cc2)NC(=O)[C@H](Cc2ccc(-c3cnn(CC(=O)N(C)C)c3)cc2)NC(=O)[C@@H](CCC(=O)O)NC(=O)[C@H](C)NC(=O)CSC[C@H](C(=O)N2CCN(CC(=O)O)CC2)NC(=O)[C@H](Cc2ccccc2)N(C)C(=O)[C@H](C)N(C)C1=O [Myostatin_99_v256] ({CH2CO}-A[dE][X4]Y[NMeCha]I[dP]K([CO-Piperazinyl(4-CH2COOH)])[Phe(4-COOH)]R[Cha][X1][NMeA][NMeF][dC]-{Piperazinyl(4-CH2COOH)}; thioether N-15) | 57 | 88 | 0 | 4 |
| 21 | 61 | 0 | 0 | CCCCCCC[C@@H]1NC(=O)[C@H](Cc2ccccc2)N(C)C(=O)[C@H](CCCNC(=N)N)NC(=O)[C@H](Cc2ccc(C(=O)O)cc2)NC(=O)[C@H](CCCCNC(=O)N2CCN(CC(=O)O)CC2)NC(=O)CN(CC)C(=O)[C@H]([C@@H](C)CC)NC(=O)[C@H](CC2CCCCC2)N(C)C(=O)[C@H](Cc2ccc(O)cc2)NC(=O)[C@H](Cc2c[nH]c3ccccc23)NC(=O)[C@@H](CCC(=O)O)NC(=O)[C@H](C)NC(=O)CSC[C@H](C(=O)N2CCN(CC(=O)O)CC2)NC(=O)[C@H](Cc2ccccc2)N(C)C(=O)[C@H](C)N(C)C1=O [Myostatin_99_v258] ({CH2CO}-A[dE]WY[NMeCha]I[NEtG]K([CO-Piperazinyl(4-CH2COOH)])[Phe(4-COOH)]R[NMeF][X1][NMeA][NMeF][dC]-{Piperazinyl(4-CH2COOH)}; thioether N-15) | – | – | – | – |
| 100 | 100 | 0 | 28 | CCCCCCCCCC[C@@H]1NC(=O)[C@H](CC2CCCCC2)NC(=O)[C@H](CCCNC(=N)N)NC(=O)[C@H](Cc2ccc(C(=O)O)cc2)NC(=O)[C@H](Cc2cccc(OCC(=O)O)c2)NC(=O)CN(C)C(=O)[C@H]([C@@H](C)CC)NC(=O)[C@H](Cc2ccccc2)N(C)C(=O)[C@H](Cc2ccc(O)cc2)NC(=O)[C@H](Cc2c[nH]c3ccccc23)NC(=O)[C@H](C)NC(=O)[C@H](CCCCNC(=O)N2CCN(CC(=O)O)CC2)NC(=O)CSC[C@H](C(=O)N2CCN(CC(=O)O)CC2)NC(=O)[C@H](Cc2ccccc2)N(C)C(=O)[C@H](C)N(C)C1=O [Myostatin_99_v259] ({CH2CO}-K([CO-Piperazinyl(4-CH2COOH)])AWY[NMeF]I[Sar][Phe(3-OCH2COOH)][Phe(4-COOH)]R[Cha][Gly(decyl)][NMeA][NMeF][dC]-{Piperazinyl(4-CH2COOH)}; thioether N-15) | – | – | – | – |
| 100 | 100 | 37 | 75 | CCCCCCCCCC[C@@H]1NC(=O)[C@H](CC2CCCCC2)NC(=O)[C@H](CCCNC(=N)N)NC(=O)[C@H](Cc2ccc(C(=O)O)cc2)NC(=O)[C@H](Cc2cccc(OCC(=O)O)c2)NC(=O)CN(C)C(=O)[C@H]([C@@H](C)CC)NC(=O)[C@H](Cc2ccccc2)N(C)C(=O)[C@H](Cc2ccc(O)cc2)NC(=O)[C@H](Cc2c[nH]c3ccccc23)NC(=O)[C@@H](CCCCNC(=O)N2CCN(CC(=O)O)CC2)NC(=O)[C@H](C)NC(=O)CSC[C@H](C(=O)N2CCN(CC(=O)O)CC2)NC(=O)[C@H](Cc2ccccc2)N(C)C(=O)[C@H](C)N(C)C1=O [Myostatin_99_v260] ({CH2CO}-A[dK]([CO-Piperazinyl(4-CH2COOH)])WY[NMeF]I[Sar][Phe(3-OCH2COOH)][Phe(4-COOH)]R[Cha][Gly(decyl)][NMeA][NMeF][dC]-{Piperazinyl(4-CH2COOH)}; thioether N-15) | – | – | – | – |
| 100 | 100 | 8 | 56 | CCCCCCCCCC[C@@H]1NC(=O)[C@H](Cc2ccccc2)N(C)C(=O)[C@H](CCCNC(=N)N)NC(=O)[C@H](Cc2ccc(C(=O)O)cc2)NC(=O)[C@H](Cc2cccc(OCC(=O)O)c2)NC(=O)CN(C)C(=O)[C@H]([C@@H](C)CC)NC(=O)[C@H](Cc2ccccc2)N(C)C(=O)[C@H](Cc2ccc(O)cc2)NC(=O)[C@H](Cc2c[nH]c3ccccc23)NC(=O)[C@H](C)NC(=O)[C@H](CCCCNC(=O)N2CCN(CC(=O)O)CC2)NC(=O)CSC[C@H](C(=O)N2CCN(CC(=O)O)CC2)NC(=O)[C@H](Cc2ccccc2)N(C)C(=O)[C@H](C)N(C)C1=O [Myostatin_99_v263] ({CH2CO}-K([CO-Piperazinyl(4-CH2COOH)])AWY[NMeF]I[Sar][Phe(3-OCH2COOH)][Phe(4-COOH)]R[NMeF][Gly(decyl)][NMeA][NMeF][dC]-{Piperazinyl(4-CH2COOH)}; thioether N-15) | – | – | – | – |

Source: EP4786487A1, “PEPTIDE” (Peptidream Inc, priority 2023, dated 2025)
